System: LPS induced NFkB activity in THP1-Blue™ cells
Assay: Suppression of LPS induced NFkB in human monocyte THP-1 reporter cells (THP1-BLUE NFkB, SEAP)
Format: cell-based
Conditions: IKK 16 at 2 μM; LPS 100 ng/mL 18 hours

With `O=C(c1ccc(Nc2nccc(-c3cc4ccccc4s3)n2)cc1)N1CCC(N2CCCC2)CC1` [IKK 16] the “Suppression of LPS induced NFkB activity in THP1-Blue ™ cells (control for suppression)” value was −80%.
